Measurements published in patent US11035008B2, “Biomarkers for cancer” (BERGENBIO ASA, priority 2015, dated 2021).

Legend:
[1] = tested on: Mv4-11 cells; test: IC50 of BGB324 by resazurin assay, Mv4-11; assay type: cell-based; settings: Homo sapiens, Mv4-11 (responder)
Excerpt: (§1) The diversity of AML cells and their responses was investigated using a panel of AML cell lines and assessing their responses after BGB324-treatment.

[2] = tested on: totErk; test: Total Erk in AML cell panel, long-term treatment, flow cytometry; assay type: cell-based, human
Experimental: (§2) Staining of Cells for Flow Cytometry, General Protocol: • Live cells were centrifuged at 300 G for 5 minutes, washed once with PBS and centrifuged again. Cells were then fixed in 4% PFA in PBS for 10 minutes at 37° C., and resuspended in PBS. Unless processed immediately, samples were at this point stored in PBS at 4° C. (up to three weeks) or at −80° C. (for long-term storage). If intracellular epitopes were stained, cells were permebealized in 90% MeOH for 30 minutes on ice. Unless processed immediately, samples were also be stored in 90% MeOH at −20° C. for up to two months. • Further staining procedure (permebealized or non-permebealized cells): • Cells were washed 1× in PBS and blocked in blocking buffer; either PBS+0.5% BSA or PBS+1:1000 Octagam (5 mg/ml) for 15 minutes at room temperature. Thereafter, cells were incubated with primary AB at the indicated dilutions in incubation buffer (IB, PBS+0.5% BSA) for 1 hour at room temperature. Cells were then washed 3× with IB and incubated with secondary AB (conjugated to a fluorescent flurophore) at 1:1000 dilution in IB for 30 minutes at room temperature. Finally, cells were washed 3× in IB and resuspended in PBS. Cells were analyzed immediately, or stored for up to 24 hours at 4° C. before analysis. • Analysis of cells was done on a BD LSR Fortessa or a BD C6 Accuri flow cytometer, and further processing was done using FlowJo v.7.6. • All incubation steps (but not storage) were done on a spinning wheel or gentle shaker.
as §1
(§3) Long-term treatment was done in complete medium, without starvation. The responders were treated with 0.05, 0.1 or 0.3 μM BGB324, whereas the non-responders were treated with only a single dose of 2.5 μM BGB324. The cells were fixed after 24, 48 or 72 hours, and the samples were stored in 90% MeOH at −20° C. until all samples were harvested, and stained for flow at the same time.

[3] = tested on: pAkt(S473); test: pAkt(S473) by flow cytometry in MOLM13 cells (Example 1); assay type: cell-based, human
Experimental: as §2
MOLM13 cells were treated with BGB324 at different doses, and phosphorylation of Akt at the S473 phosphorylation site was assessed using a pAkt (S473) XP antibody from Cell Signaling Technology (#4060, BGB #109). Due to previous experience using this AB for flow, the AB was not titrated, but used at the concentration recommended by the manufacturer for flow cytometry.
MOLM13 cells were cultured in starvation medium (RPMI, 0.1% FBS) over night, pre-treated with BGB324 at 3 μM for 20 minutes, and thereafter stimulated with 10% FBS for 20 minutes (+/−BGB324) to induce Akt phosphorylation. […]

[4] = tested on: totSLFN11; test: Total SLFN11 in AML cell panel, long-term treatment, flow cytometry; assay type: cell-based, human
Experimental: as §2, §1, §3

[5] = tested on: totPHGDH; test: Total PHGDH in AML cell panel, long-term treatment, flow cytometry; assay type: cell-based, human
Experimental: as §2, §1, §3

[6] = tested on: totAxl; test: Total Axl in AML cell panel, long-term treatment, flow cytometry; assay type: cell-based, human
Experimental: as §2, §1, §3

[7] = tested on: OCI-M1 cells; test: IC50 of BGB324 by resazurin assay, OCI-M1; assay type: cell-based; settings: Homo sapiens, OCI-M1 (non-responder)
Excerpt: as §1

[8] = tested on: pPLCγ1; test: pPLCγ1 in AML cell panel, short term treatment, flow cytometry; assay type: cell-based, human
Experimental: as §2, §1
When investigating phospho-markers, the cells were starved overnight in the appropriate growth medium containing 0.1% FBS, pre-treated with BGB324 at 0.5 and 1 μM for one hour, and stimulated with 10% FBS for 20 minutes (to induce phosphorylation, with BGB324 present). Cells were then fixed and stained for flow cytometric analyses.

[9] = Mv4-11, 0.3 μM, 24, 48 and 72 hours

For `Nc1nc(Nc2ccc3c(c2)CC[C@@H](N2CCCC2)CC3)nn1-c1cc2c(nn1)-c1ccccc1CCC2` [BGB324, 1-(6,7-dihydro-5H-benzo[6,7]cyclohepta[1,2-c]pyridazin-3-yl)-N3-((7-(S)-pyrrolidin-1-yl)-6,7,8,9-tetrahydro-5H-benzo[7]annulene-2-yl)-1H-1,2,4-triazole-3,5-diamine], the IC50 [1] was 140 nM, the Erk expression ([2]; Kasumi, 2.5 μM, significant at 48 and 72 hours) was “reduction of Erk expression” and the Erk expression ([2]; MOLM13, 0.3 μM, 48 and 72 hours) was “normalized to control-levels”. The Erk expression ([2]; MOLM13, 0.3 μM, 24 hours) was “slight, but significant, reduction of Erk expression”, the Erk expression [2, 9] was “gradual reduction of Erk expression” and the Erk expression ([2]; Mv4-11, 0.3 μM, 48 and 72 hours) was “significantly lower than control cells”. The Erk expression ([2]; OCI-AML5, 2.5 μM, significant at 24 and 48 hours) was “reduction of Erk expression”, the “pAkt in shAxl-expressing cells” value ([3]; MOLM13 shAxl (Axl knockdown), 0.1-3 μM) was “inhibition of pAkt was also seen” and the “Akt(S473) phosphorylation” value ([3]; MOLM13 starved over night, 3 μM, presence and absence of 10% FBS) was “potently inhibited”. For the same compound, the pAkt dose-response ([3]; MOLM13 wt, shLuc, shAxl, 0.1-3 μM, starved and non-starved) was “potent dose-dependent reduction of pAkt”, the SLFN11 expression ([4]; Kasumi, 2.5 μM, 24 and 48 hours) was “no significant differences” and the SLFN11 expression ([4]; Kasumi, 2.5 μM, 72 hours) was “significant increase of SLFN11 expression”. For the same compound, the “total protein expression of SLFN11” value ([4]; MOLM13, 0.3 μM, 24, 48 and 72 hours) was “significant reduction”, the “total protein expression of SLFN11” value ([4]; Mv4-11, 0.1 uM, 72 hours) was “significantly reduced” and the “total protein expression of SLFN11” value [4, 9] was “significant reduction”. The SLFN11 expression ([4]; OCI-AML5, 2.5 μM, 24 and 48 hours) was “no significant differences”, the SLFN11 expression ([4]; OCI-AML5, 2.5 μM, 72 hours) was “significant increase of SLFN11 expression” and the PHGDH expression ([5]; Kasumi, 2.5 μM, significant at 24 hours) was “increase in PHGDH expression”. For the same compound, the “total protein expression of PHGDH” value ([5]; MOLM13, 24, 48 and 72 hours) was “no significant changes”, the “total protein expression of PHGDH” value ([5]; Mv4-11, 0.3 uM, 24 and 72 hours) was “significant reduction of PHGDH” and the PHGDH expression ([5]; OCI-AML5, 2.5 μM, significant in all time points) was “increase in PHGDH expression”. The Axl expression ([6]; Kasumi, 2.5 μM, 24-72 hours) was “goes significantly up”, the Axl expression ([6]; MOLM13, 0.3 μM, 24 hours) was “slight and significant reduction of Axl” and the Axl expression ([6]; Mv4-11, 0.3 μM, 24 hours and 72 hours) was “slight and significant reduction of Axl”. The Axl expression ([6]; OCI-AML5, 2.5 μM, 24-72 hours) was “goes significantly up”, the IC50 [7] was 1800 nM and the pPLCγ ([8]; Kasumi, 1 hour) was “No response in PLCγ”. For the same compound, the pPLCγ ([8]; MOLM13, all treatment doses, 1 hour) was “significantly reduced”, the pPLCγ ([8]; Mv4-11, all treatment doses, 1 hour) was “significantly reduced” and the pPLCγ ([8]; OCI-M1, 1 hour) was “No response in PLCγ”.
